Results from ChEMBL document CHEMBL1201862, “PubChem BioAssay data set” (2004).
Activity calls are given as the source filed them.

Tests used:
Vero = experiment: Vero cell toxicity, dose response, cytotoxicity control, plate reader, cherry-pick samples (AID 687020); type: functional, cell-based; conditions: Chlorocebus sabaeus
cells [1] = type: functional, cell-based
[2] = molecular target: T1, Trace amine-associated receptor 1 (Homo sapiens, UniProt Q96RJ0); experiment: Counterscreen for agonists of the human trace amine associated receptor 1 (hTAAR1): Fluorescence-based cell-based high throughput dose response assay to identify hTAAR1 agonist that also desensitize TAAR1 receptor response.; type: functional
T1 sequence (Q96RJ0 whole entry): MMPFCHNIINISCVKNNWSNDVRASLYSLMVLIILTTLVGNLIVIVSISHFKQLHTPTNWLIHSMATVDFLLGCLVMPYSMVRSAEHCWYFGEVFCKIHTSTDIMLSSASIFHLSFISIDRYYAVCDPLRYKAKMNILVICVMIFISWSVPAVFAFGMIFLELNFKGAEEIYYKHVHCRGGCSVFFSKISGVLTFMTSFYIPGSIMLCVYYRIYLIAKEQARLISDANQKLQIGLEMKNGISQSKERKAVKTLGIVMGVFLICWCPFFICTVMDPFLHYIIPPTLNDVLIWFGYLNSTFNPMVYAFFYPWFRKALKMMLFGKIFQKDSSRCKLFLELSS

[3] = molecular target: T1, Trace amine-associated receptor 1; experiment: Fluorescence-based cell-based high throughput dose response assay to identify agonists of the human trace amine associated receptor 1 (TAAR1).; type: functional
cells [4] = type: functional, cell-based; remark: listed apart in the source
[5] = inhibitors of control Renilla luciferase reporter, dose response, counter-screen for Shn3 3'UTR targeting project, Clone20-Shn3RL cells, dual-Glo, cherry-pick, set 2 (AID 720724); type: functional, cell-based; conditions: Dual-Go Shn3RL
cells [6] = type: functional, cell-based; conditions: HEK-CNG
[7] = HepG2 cell cytotoxicity, dose response, cytotoxicity control for Shn3 inhibitor project, CellTiter-Glo, cherry-picked (AID 624134); type: functional, cell-based
[8] = control 3'UTR Renilla luciferase suppression, dose response, counter-screen for Shn3 inhibitor project, cell-based, Clone20-Shn3RL, cherry-picked (AID 624133); type: functional
[9] = reduction of Shn3 3'UTR firefly luciferase signal, dose response, Schnurri-3 inhibitor project, cell-based, Clone20 osteoblasts, cherry-pick, set 2 (AID 720490); type: functional;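 also: actives lower the luminescence signal as inhibitors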
Galanin receptor type 3 = Galanin receptor type 3 (Homo sapiens, UniProt O60755); experiment: Fluorescence-based cell-based primary high throughput dose response assay to identify antagonists of the Galanin Receptor 3 (GalR3).; type: functional
[10] = Shn3 3'UTR reporter inhibitors, dose response, cell-based, Clone20 osteoblasts, firefly luciferase, cherry-picked (AID 624132); type: functional;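 also: firefly luciferase luminescence from reporter carrying the Shn3 3'UTR in osteoblasts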
[11] = molecular target: T2, Replicative DNA helicase DnaB (Mycobacterium tuberculosis, UniProt P9WMR3); experiment: DnaB intein splicing inhibitors, dose response, biochemical, cell-free fluorescence (AID 449749); type: functional
T2 sequence (P9WMR3 whole entry): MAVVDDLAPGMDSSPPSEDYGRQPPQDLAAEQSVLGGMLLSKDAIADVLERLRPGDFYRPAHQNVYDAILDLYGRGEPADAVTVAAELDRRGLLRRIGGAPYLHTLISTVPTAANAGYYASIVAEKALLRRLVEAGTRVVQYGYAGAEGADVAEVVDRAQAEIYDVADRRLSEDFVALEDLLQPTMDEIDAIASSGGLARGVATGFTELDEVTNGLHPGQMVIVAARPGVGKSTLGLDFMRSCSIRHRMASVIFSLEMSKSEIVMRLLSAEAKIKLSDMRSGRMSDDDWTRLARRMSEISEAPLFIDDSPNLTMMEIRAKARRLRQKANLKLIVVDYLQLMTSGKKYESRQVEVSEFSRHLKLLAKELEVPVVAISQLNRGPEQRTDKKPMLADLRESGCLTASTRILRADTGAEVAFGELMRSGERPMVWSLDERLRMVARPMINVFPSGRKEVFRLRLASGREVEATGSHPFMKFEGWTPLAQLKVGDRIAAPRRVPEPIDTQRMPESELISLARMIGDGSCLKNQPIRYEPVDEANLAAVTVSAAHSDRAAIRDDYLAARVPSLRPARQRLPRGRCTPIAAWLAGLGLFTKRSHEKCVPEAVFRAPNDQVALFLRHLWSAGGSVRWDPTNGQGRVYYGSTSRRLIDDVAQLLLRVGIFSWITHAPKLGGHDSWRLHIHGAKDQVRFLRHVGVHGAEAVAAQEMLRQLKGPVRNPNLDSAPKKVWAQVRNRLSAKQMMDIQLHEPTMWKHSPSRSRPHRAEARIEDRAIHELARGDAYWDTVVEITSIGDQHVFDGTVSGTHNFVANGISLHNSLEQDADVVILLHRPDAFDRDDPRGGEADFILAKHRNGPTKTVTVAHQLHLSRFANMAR

Protein RecA = molecular target: T3, Protein RecA (Mycobacterium tuberculosis, UniProt P9WHJ3); experiment: Fluorescence Cell-Free Homogeneous Dose Retest to Identify Inhibitors of RecA-Intein Splicing Activity. [Related pubchem assays (depositor defined):AID2097, AID2223, AID489010, AID492950]; type: functional
T3 sequence (P9WHJ3 whole entry): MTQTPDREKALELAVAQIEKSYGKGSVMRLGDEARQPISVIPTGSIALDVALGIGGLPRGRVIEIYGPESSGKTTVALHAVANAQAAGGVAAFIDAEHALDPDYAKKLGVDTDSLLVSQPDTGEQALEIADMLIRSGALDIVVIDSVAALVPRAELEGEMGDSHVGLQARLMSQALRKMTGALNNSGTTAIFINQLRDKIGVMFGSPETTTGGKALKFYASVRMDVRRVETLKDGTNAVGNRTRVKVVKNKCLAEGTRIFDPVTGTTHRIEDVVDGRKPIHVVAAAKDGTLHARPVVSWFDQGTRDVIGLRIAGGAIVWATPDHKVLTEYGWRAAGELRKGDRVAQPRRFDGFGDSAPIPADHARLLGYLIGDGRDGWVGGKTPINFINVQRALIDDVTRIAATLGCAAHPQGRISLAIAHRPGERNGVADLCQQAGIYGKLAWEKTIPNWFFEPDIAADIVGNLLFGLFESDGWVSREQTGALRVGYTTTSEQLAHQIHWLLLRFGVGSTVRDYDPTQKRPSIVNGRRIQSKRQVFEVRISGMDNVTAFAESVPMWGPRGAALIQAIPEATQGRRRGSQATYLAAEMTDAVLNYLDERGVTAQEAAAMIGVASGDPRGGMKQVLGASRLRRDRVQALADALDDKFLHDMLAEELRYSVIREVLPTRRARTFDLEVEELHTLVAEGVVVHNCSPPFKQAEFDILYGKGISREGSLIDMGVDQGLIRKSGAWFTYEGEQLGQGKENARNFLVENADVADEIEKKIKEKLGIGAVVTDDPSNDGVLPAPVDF

Interleukin-8 [12] = molecular target: T4, Interleukin-8 (Homo sapiens, UniProt P10145); experiment: Dose Response confirmation of uHTS small molecule hits for cystic fibrosis induced NFkb Inhibitors in a TNFa-induced IL8 counterscreen.; type: functional; conditions: read-out: IC50_Mean
T4 sequence (P10145 whole entry): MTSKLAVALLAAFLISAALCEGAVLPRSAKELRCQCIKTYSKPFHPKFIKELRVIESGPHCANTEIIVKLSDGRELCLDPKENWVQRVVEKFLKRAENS

Interleukin-8 [13] = molecular target: T4, Interleukin-8; experiment: Dose Response confirmation of uHTS small molecule hits for cystic fibrosis induced NFkb Inhibitors in a PAF-induced IL8 counterscreen.; type: functional; conditions: read-out: IC50_Mean

Chain of Galanin receptor type 3 (O60755 whole entry): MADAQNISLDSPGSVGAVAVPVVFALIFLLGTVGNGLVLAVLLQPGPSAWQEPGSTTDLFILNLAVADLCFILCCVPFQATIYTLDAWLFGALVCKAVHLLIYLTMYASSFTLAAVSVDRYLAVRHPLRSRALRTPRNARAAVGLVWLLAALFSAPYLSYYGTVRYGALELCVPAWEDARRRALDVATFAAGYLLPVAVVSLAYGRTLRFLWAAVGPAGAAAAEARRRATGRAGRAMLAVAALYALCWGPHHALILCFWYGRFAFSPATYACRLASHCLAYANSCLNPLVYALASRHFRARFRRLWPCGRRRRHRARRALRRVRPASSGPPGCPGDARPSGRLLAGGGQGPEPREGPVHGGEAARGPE

Compound: CCCn1c(NCc2ccc(N(C)C)cc2)nc2ccccc21
- AC50 (Vero): 36.6 µM (active)

Compound: O=C(NCCc1ccccc1)C1CCCN(S(=O)(=O)c2cccc3nsnc23)C1 (centres undefined)
- EC50 (cells [1]): > 29.9 µM (inactive)
- IC50 [2]: 2.2 µM (active)
- EC50 [3]: 0.669 µM (active)
- IC50 (cells [4]): > 29.9 µM (inactive)

Compound: CCCCc1cc(=O)oc2cc(C)cc(OCC(=O)N3CCC(C(N)=O)CC3)c12
- AC50 (Vero): 37.5 µM (active)

Compound: Cc1ccnc(SCC(=O)Nc2sc3c(c2C#N)CCCC3)n1
- AC50 [5]: 11.9 µM (active)
- EC50 (cells [6]): > 29.9 µM (inactive)
- AC50 [7]: 66.8 µM (active)
- AC50 [8]: 5 µM (active)
- AC50 [9]: 1.18 µM (active)
- IC50 (Galanin receptor type 3): > 1.11 µM (active)
- AC50 [10]: 0.955 µM (active)

Compound: Cc1cc(C)c(C#N)c(SCc2n[nH]c3c2C(c2ccc(F)cc2)C(C#N)=C(N)O3)n1 (centres undefined)
- AC50 [11]: 6.74 µM (active)
- EC50 (cells [6]): > 29.9 µM (inactive)
- EC50 (Protein RecA): 11.2 µM (active)
- IC50 (Galanin receptor type 3): > 29.9 µM (inactive)

Compound: O=C(c1ccccc1)C1OC1C(=O)c1ccccc1 (centres undefined)
- IC50 (Interleukin-8 [12]): 6 µM (active)
- IC50 (Interleukin-8 [13]): 2.84 µM (active)
